Data as given in US10479784B2, “Substituted pyrazin-2-amines as inhibitors of ATR kinase” (Vertex Pharmaceuticals Incorporated, priority 2008, dated 2019).

Each molecule was assayed against full-length ATR (Homo sapiens (Human), UniProt Q13535) (assay: ATR Inhibition Assay (radioactive-phosphate incorporation)). Conditions: read-out: ATR Ki.
Format: biochemical
Procedure, shortened: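 Ki(app) was derived by non-linear regression of background-corrected initial rates of 33P incorporation into an 800 μM target peptide, read by phosphocellulose filter scintillation counting. Reaction conditions: 5 nM full-length ATR, 10 μM [γ-33P]ATP, pH 7.5 Tris buffer with MgCl2 and DTT, 25 °C, 10-min preincubation, 24 h run.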

Sequence of full-length ATR (Q13535 whole entry): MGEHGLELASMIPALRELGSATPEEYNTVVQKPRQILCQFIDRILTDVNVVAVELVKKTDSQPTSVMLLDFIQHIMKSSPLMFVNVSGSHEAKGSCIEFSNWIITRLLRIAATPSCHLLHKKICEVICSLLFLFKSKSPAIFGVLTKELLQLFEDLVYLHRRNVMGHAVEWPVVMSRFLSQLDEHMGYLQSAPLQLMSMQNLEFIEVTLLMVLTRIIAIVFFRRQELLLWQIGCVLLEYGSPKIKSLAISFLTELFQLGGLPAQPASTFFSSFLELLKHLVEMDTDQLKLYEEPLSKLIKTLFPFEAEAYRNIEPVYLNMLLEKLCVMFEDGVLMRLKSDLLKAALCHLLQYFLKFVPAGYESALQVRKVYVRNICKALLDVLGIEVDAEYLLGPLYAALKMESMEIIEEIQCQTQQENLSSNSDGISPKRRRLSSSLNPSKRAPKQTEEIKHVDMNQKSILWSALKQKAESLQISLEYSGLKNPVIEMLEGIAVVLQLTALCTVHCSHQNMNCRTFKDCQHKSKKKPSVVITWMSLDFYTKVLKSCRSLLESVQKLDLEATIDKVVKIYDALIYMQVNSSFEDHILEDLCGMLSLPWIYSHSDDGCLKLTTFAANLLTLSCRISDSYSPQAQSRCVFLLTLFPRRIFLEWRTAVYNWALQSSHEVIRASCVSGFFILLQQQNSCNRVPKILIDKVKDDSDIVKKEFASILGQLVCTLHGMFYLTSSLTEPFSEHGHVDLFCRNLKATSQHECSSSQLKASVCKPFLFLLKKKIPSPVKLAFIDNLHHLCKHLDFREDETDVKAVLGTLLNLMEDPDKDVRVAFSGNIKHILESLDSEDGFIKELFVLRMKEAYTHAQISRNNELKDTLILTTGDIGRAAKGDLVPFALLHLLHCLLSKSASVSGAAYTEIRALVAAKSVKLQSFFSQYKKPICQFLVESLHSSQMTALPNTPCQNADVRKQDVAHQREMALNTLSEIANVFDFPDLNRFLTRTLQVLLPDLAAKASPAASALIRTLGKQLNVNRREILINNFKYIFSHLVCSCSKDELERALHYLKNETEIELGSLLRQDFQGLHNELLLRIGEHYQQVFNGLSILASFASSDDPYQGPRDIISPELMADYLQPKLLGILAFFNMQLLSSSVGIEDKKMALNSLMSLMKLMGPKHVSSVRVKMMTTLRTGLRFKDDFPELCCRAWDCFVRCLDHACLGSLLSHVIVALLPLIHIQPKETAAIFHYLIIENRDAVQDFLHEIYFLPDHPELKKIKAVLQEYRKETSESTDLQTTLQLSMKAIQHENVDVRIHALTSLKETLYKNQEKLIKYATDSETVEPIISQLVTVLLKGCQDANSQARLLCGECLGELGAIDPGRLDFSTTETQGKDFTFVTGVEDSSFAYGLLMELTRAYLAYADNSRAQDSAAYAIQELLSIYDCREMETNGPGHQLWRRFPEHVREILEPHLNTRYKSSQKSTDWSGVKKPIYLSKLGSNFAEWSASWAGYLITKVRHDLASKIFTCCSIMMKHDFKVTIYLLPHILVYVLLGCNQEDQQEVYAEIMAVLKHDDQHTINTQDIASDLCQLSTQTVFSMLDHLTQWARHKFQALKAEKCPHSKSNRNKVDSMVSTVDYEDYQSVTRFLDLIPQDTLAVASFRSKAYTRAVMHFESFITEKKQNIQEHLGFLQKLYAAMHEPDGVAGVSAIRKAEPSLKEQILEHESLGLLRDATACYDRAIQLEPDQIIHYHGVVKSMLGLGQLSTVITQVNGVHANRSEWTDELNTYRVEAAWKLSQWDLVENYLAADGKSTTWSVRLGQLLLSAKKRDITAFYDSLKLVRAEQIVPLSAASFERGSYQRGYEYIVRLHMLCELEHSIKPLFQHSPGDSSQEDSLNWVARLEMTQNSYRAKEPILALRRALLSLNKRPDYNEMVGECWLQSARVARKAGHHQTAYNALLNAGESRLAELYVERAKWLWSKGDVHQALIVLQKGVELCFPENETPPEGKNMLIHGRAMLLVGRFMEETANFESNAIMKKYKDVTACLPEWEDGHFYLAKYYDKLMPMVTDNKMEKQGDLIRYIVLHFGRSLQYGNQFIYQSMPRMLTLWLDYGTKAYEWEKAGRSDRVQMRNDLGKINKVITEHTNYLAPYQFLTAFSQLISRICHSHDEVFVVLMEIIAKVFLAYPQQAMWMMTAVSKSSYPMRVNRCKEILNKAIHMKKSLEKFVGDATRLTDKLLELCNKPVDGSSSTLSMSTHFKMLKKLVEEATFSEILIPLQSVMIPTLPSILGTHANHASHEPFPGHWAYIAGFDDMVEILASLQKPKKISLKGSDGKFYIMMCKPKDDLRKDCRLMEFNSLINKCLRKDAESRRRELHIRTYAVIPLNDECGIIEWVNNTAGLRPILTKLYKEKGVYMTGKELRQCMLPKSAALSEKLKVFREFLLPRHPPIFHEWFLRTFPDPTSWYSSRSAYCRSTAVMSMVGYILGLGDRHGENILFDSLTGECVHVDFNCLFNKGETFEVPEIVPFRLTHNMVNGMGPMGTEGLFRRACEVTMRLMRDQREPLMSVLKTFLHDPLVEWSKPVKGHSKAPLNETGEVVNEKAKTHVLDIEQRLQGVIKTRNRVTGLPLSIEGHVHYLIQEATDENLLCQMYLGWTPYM

Ki [nM]	SMILES
≤ 10	CS(=O)(=O)c1ccc(-c2cnc(N)c(-c3nc4ccc(C(F)(F)F)cc4[nH]3)n2)cc1 [Compound I-118, 5-(4-(methylsulfonyl)phenyl)-3-(6-(trifluoromethyl)-1H-benzo[d]imidazol-2-yl)pyrazin-2-amine]
10 to 100	Cc1cccc2nc(-c3nc(-c4ccc(S(C)(=O)=O)cc4)cnc3N)[nH]c12 [Compound I-119, 3-(7-methyl-1H-benzo[d]imidazol-2-yl)-5-(4-(methylsulfonyl)phenyl) pyrazin-2-amine]
10 to 100	CS(=O)(=O)c1ccc(-c2cnc(N)c(-c3nc4ccncc4[nH]3)n2)cc1 [Compound I-120, 3-(3H-imidazo[4,5-c]pyridin-2-yl)-5-(4-(methylsulfonyl)phenyl) pyrazin-2-amine]
10 to 100	Nc1ncc(-c2cccnc2)nc1-c1nc2ccccc2[nH]1 [Compound I-121, 3-(1H-benzo[d]imidazol-2-yl)-5-(pyridin-3-yl)pyrazin-2-amine]
10 to 100	CS(=O)(=O)c1cccc(-c2cnc(N)c(-c3nc4ccccc4[nH]3)n2)c1 [Compound I-122, 3-(1H-benzo[d]imidazol-2-yl)-5-(3-(methylsulfonyl)phenyl)pyrazin-2-amine]
10 to 100	CN(C)C(=O)c1ccc(-c2cnc(N)c(-c3nc4ccccc4[nH]3)n2)cc1 [Compound I-124, 4-(5-amino-6-(1H-benzo[d]imidazol-2-yl)pyrazin-2-yl)-N,N-dimethylbenzamide]
10 to 100	Nc1ncc(-c2cccc(C(=O)N3CCOCC3)c2)nc1-c1nc2ccccc2[nH]1 [Compound I-125, (3-(5-amino-6-(1H-benzo[d]imidazol-2-yl)pyrazin-2-yl)phenyl) (morpholino)methanone]
100 to 5000	Nc1ncc(-c2cccc(O)c2)nc1-c1nc2ccccc2[nH]1 [Compound I-126, 3-(5-amino-6-(1H-benzo[d]imidazol-2-yl)pyrazin-2-yl)phenol]
100 to 5000	Nc1ncc(-c2ccccc2CO)nc1-c1nc2ccccc2[nH]1 [Compound I-127, (2-(5-amino-6-(1H-benzo[d]imidazol-2-yl)pyrazin-2-yl)phenyl)methanol]
10 to 100	Nc1ncc(-c2ccc(C(=O)NCCCO)cc2)nc1-c1nc2ccccc2[nH]1 [Compound I-128, 4-(5-amino-6-(1H-benzo[d]imidazol-2-yl)pyrazin-2-yl)-N-(3-hydroxypropyl)benzamide]
10 to 100	N#Cc1ccc(-c2cnc(N)c(-c3nc4ccccc4[nH]3)n2)cc1 [Compound I-129, 4-(5-amino-6-(1H-benzo[d]imidazol-2-yl)pyrazin-2-yl)benzonitrile]
100 to 5000	CC(=O)NCc1ccc(-c2cnc(N)c(-c3nc4ccccc4[nH]3)n2)cc1 [Compound I-130, N-(4-(5-amino-6-(1H-benzo[d]imidazol-2-yl)pyrazin-2-yl)benzyl) ethanamide]
10 to 100	Nc1ncc(-c2ccc(F)c(C(=O)N3CCOCC3)c2)nc1-c1nc2ccccc2[nH]1 [Compound I-131, (5-(5-amino-6-(1H-benzo[d]imidazol-2-yl)pyrazin-2-yl)-2-fluorophenyl) (morpholino)methanone]
10 to 100	Nc1ncc(-c2ccc(C(=O)NCCO)cc2)nc1-c1nc2ccccc2[nH]1 [Compound I-132, 4-(5-amino-6-(1H-benzo[d]imidazol-2-yl)pyrazin-2-yl)-N-(2-hydroxyethyl)benzamide]
10 to 100	Nc1ncc(-c2ccc(C(=O)NCCN3CCCC3)cc2)nc1-c1nc2ccccc2[nH]1 [Compound I-133, 4-(5-amino-6-(1H-benzo[d]imidazol-2-yl)pyrazin-2-yl)-N-(2-(pyrrolidin-1-yl)ethyl)benzamide]
≤ 10	Nc1ncc(-c2ccc(S(=O)(=O)N3CCCC3)cc2)nc1-c1nc2ccccc2[nH]1 [Compound I-134, 3-(1H-benzo[d]imidazol-2-yl)-5-(4-(pyrrolidin-1-ylsulfonyl)phenyl) pyrazin-2-amine]
100 to 5000	Nc1ncc(-c2ccc(N3CCOCC3)nc2)nc1-c1nc2ccccc2[nH]1 [Compound I-135, 3-(1H-benzo[d]imidazol-2-yl)-5-(6-morpholinopyridin-3-yl)pyrazin-2-amine]
100 to 5000	Nc1ncc(-c2ccnc(N3CCNCC3)c2)nc1-c1nc2ccccc2[nH]1 [Compound I-136, 3-(1H-benzo[d]imidazol-2-yl)-5-(2-(piperazin-1-yl)pyridin-4-yl)pyrazin-2-amine]
10 to 100	Nc1ncc(-c2ccc(O)nc2)nc1-c1nc2ccccc2[nH]1 [Compound I-137, 5-(5-amino-6-(1H-benzo[d]imidazol-2-yl)pyrazin-2-yl)pyridin-2-ol]
10 to 100	Nc1ncc(-c2cccnc2)nc1-c1nnc(-c2ccccc2)[nH]1 [Compound I-138, 3-(5-phenyl-4H-1,2,4-triazol-3-yl)-5-(pyridin-3-yl)pyrazin-2-amine]
10 to 100	NCc1ccc(-c2nnc(-c3nc(-c4cccnc4)cnc3N)[nH]2)cc1 [Compound I-139, 3-(5-(4-(aminomethyl)phenyl)-4H-1,2,4-triazol-3-yl)-5-(pyridin-3-yl)pyrazin-2-amine]
10 to 100	Nc1cccc(-c2nnc(-c3nc(-c4cccnc4)cnc3N)[nH]2)c1 [Compound I-140, 3-(5-(3-aminophenyl)-4H-1,2,4-triazol-3-yl)-5-(pyridin-3-yl)pyrazin-2-amine]

Ki [nM]	SMILES
10 to 100	Cc1cccc(-c2nnc(-c3nc(-c4cccnc4)cnc3N)[nH]2)c1 [Compound I-141, 5-(pyridin-3-yl)-3-(5-m-tolyl-4H-1,2,4-triazol-3-yl)pyrazin-2-amine]
10 to 100	Nc1ncc(-c2cccnc2)nc1-c1nnc(-c2cccs2)[nH]1 [Compound I-142, 5-(pyridin-3-yl)-3-(5-(thiophen-2-yl)-4H-1,2,4-triazol-3-yl)pyrazin-2-amine]
10 to 100	NCc1cccc(-c2nnc(-c3nc(-c4cccnc4)cnc3N)[nH]2)c1 [Compound I-143, 3-(5-(3-(aminomethyl)phenyl)-4H-1,2,4-triazol-3-yl)-5-(pyridin-3-yl)pyrazin-2-amine]
≤ 10	CS(=O)(=O)c1ccc(-c2cnc(N)c(-c3noc(-c4ccccc4)n3)n2)cc1 [Compound I-144, 5-(4-(methylsulfonyl)phenyl)-3-(5-phenyl-1,2,4-oxadiazol-3-yl)pyrazin-2-amine]
10 to 100	Nc1ncc(-c2cccnc2)nc1-c1noc(-c2ccccc2)n1 [Compound I-145]
≤ 10	Cc1ccc2nc(-c3nc(-c4ccc(C(=O)N5CCCN(C(=O)OC(C)(C)C)CC5)cc4)cnc3N)[nH]c2c1 [Compound I-147, tert-butyl 4-(4-(5-amino-6-(6-methyl-1H-benzo[d]imidazol-2-yl)pyrazin-2-yl)phenylcarbonyl)-1,4-diazepane-1-carboxylate]
10 to 100	Cc1ccc2nc(-c3nc(-c4ccc(C(=O)N5CCC(N(C)C)CC5)cc4)cnc3N)[nH]c2c1 [Compound I-148, (4-(5-amino-6-(6-methyl-1H-benzo[d]imidazol-2-yl)pyrazin-2-yl)phenyl)(4-(dimethylamino)piperidin-1-yl)methanone]
10 to 100	Cc1ccc2nc(-c3nc(-c4ccc(C(=O)N5CCNCC5)cc4)cnc3N)[nH]c2c1 [Compound I-149, (4-(5-amino-6-(6-methyl-1H-benzo[d]imidazol-2-yl)pyrazin-2-yl)phenyl)(piperazin-1-yl)methanone]
10 to 100	Cc1ccc2nc(-c3nc(-c4ccc(C(=O)N5CCN(C)CC5)cc4)cnc3N)[nH]c2c1 [Compound I-150, (4-(5-amino-6-(6-methyl-1H-benzo[d]imidazol-2-yl)pyrazin-2-yl)phenyl)(4-methylpiperazin-1-yl)methanone]
10 to 100	Cc1ccc2nc(-c3nc(-c4ccc(C(=O)N5CCCN(C)CC5)cc4)cnc3N)[nH]c2c1 [Compound I-151, (4-(5-amino-6-(6-methyl-1H-benzo[d]imidazol-2-yl)pyrazin-2-yl)phenyl)(4-methyl-1,4-diazepan-1-yl)methanone]
10 to 100	Nc1ncc(-c2ccc(C(=O)NCCN3CCCC3)cc2)nc1-c1nc2ccccc2[nH]1 [Compound I-152, 4-(5-amino-6-(1H-benzo[d]imidazol-2-yl)pyrazin-2-yl)-N-(2-(pyrrolidin-1-yl)ethyl)benzamide]
10 to 100	Cc1ccc2nc(-c3nc(-c4ccc(C(=O)N5CCCNCC5)cc4)cnc3N)[nH]c2c1 [Compound I-153, (4-(5-amino-6-(6-methyl-1H-benzo[d]imidazol-2-yl)pyrazin-2-yl)phenyl) (1,4-diazepan-1-yl)methanone]
≤ 10	N#Cc1cc(C(=O)N2CCCNCC2)ccc1-c1cnc(N)c(C(=O)Nc2nc3ccccc3[nH]2)n1 [Compound V-2]
≤ 10	N#Cc1cnccc1-c1cnc(N)c(C(=O)Nc2nc3ccccc3[nH]2)n1 [Compound V-3]
10 to 100	Nc1ncc(-c2ccc(C(=O)N3CCCNCC3)cc2)nc1C(=O)Nc1ccc2cn[nH]c2c1 [Compound V-4]
10 to 100	Nc1ncc(-c2ccc(C(=O)N3CCCNCC3)cc2)nc1C(=O)Nc1nc2ccccc2o1 [Compound V-5]
100 to 5000	Nc1ncc(-c2ccc(C(=O)N3CCCNCC3)cc2)nc1C(=O)Nc1cc2ccccc2[nH]1 [Compound V-6]
100 to 5000	Cn1c(NC(=O)c2nc(-c3ccc(C(=O)N4CCCNCC4)cc3)cnc2N)nc2ccccc21 [Compound V-7]
≤ 10	Nc1ncc(-c2ccc(C(=O)N3CCCNCC3)cc2)nc1C(=O)Nc1n[nH]c2ccccc12 [Compound V-8]
10 to 100	Nc1ncc(-c2ccc(C(=O)N3CCCNCC3)cc2)nc1C(=O)Nc1nc2ccccc2s1 [Compound V-9]
≤ 10	Nc1ncc(-c2ccc(C(=O)N3CCCNCC3)cc2)nc1C(=O)Nc1nc2ccccc2[nH]1 [Compound V-10]

SMILES	Ki [nM]
CS(=O)(=O)c1ccc(-c2cnc(N)c(-c3nc4ccccc4[nH]3)n2)cc1 [Compound I-123, 3-(1H-benzo[d]imidazol-2-yl)-5-(4-(methylsulfonyl)phenyl)pyrazin-2-amine]	10 to 100
CS(=O)(=O)c1ccc(-c2cnc(N)c(-c3nc4ccccc4s3)n2)cc1 [Compound I-146, 3-(benzo[d]thiazol-2-yl)-5-(4-(methylsulfonyl)phenyl)pyrazin-2-amine]	10 to 100
